Test results taken from PubChem BioAssay AID248 (DTP/NCI, 2004).
Several values for one entry are separate records, joined by “and”; a condition that tells them apart may be missing. Equal entries are not always repeated. Inconclusive results and toxic doses are left out.

Tested on: L1210 leukemia ip in BDF1 mice, survival T/C
Test: NCI In Vivo Anticancer Drug Screen. Data for tumor model L1210 Leukemia (intraperitoneal) in B6D2F1 (BDF1) mice
Details: endpoint: mean survival time, higher = longer survival
How it was run: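 Ratio derived from survival: compound-dosed mice over vehicle-dosed mice, all bearing a transplantable tumor.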

[1] = dose: 100.0 mg/kg/injection, schedule: Q04DX003 (ip), vehicle: saline with Tween-80
[2] = dose: 200.0 mg/kg/injection, schedule: Q04DX003 (ip), vehicle: saline with Tween-80
[3] = dose: 100.0 mg/kg/injection, schedule: Q04DX003 (ip), vehicle: saline
[4] = dose: 100.0 mg/kg/injection, schedule: Q01DX009 (ip), vehicle: Klucel (hydroxypropylcellulose) (HPC)
[5] = dose: 100.0 mg/kg/injection, schedule: Q01DX001 (ip), vehicle: saline
[6] = dose: 200.0 mg/kg/injection, schedule: Q01DX001 (ip), vehicle: saline
[7] = dose: 400.0 mg/kg/injection, schedule: Q01DX001 (ip), vehicle: saline
[8] = dose: 200.0 mg/kg/injection, schedule: Q01DX009 (ip), vehicle: Klucel (hydroxypropylcellulose) (HPC)
[9] = dose: 400.0 mg/kg/injection, schedule: Q01DX009 (ip), vehicle: Klucel (hydroxypropylcellulose) (HPC)

For `CCCCCC1CCC(C(=O)O)CC1` (stereo unspecified), the T/C [1] was 88 % of control and the T/C [2] was 93 % of control.

In the case of `COC1CC(OC(=O)c2ccc(C)cc2)C(COC(=O)c2ccc(C)cc2)O1` (stereo unspecified), the T/C [3] was 98 % of control, the T/C (dose: 200.0 mg/kg/injection, schedule: Q04DX003 (ip), vehicle: saline) was 102 % of control and the T/C (dose: 400.0 mg/kg/injection, schedule: Q04DX003 (ip), vehicle: saline) was 98 % of control.

`CC1(C)C2CCC(C2)C1C(=O)O` (stereo unspecified) was tested, and the T/C [1] was 95 % of control, the T/C [2] was 91 % of control and the T/C (dose: 400.0 mg/kg/injection, schedule: Q04DX003 (ip), vehicle: saline with Tween-80) was 100 % of control.

In the case of `CCCCN(C)N=Nc1ccc(CCCC(=O)OCC)cc1`, the T/C (dose: 12.5 mg/kg/injection, schedule: Q01DX009 (ip), vehicle: Klucel (hydroxypropylcellulose) (HPC)) was 108 % of control, the T/C (dose: 20.0 mg/kg/injection, schedule: Q01DX009 (ip), vehicle: saline) was 107 % of control and the T/C (dose: 25.0 mg/kg/injection, schedule: Q01DX009 (ip), vehicle: Klucel (hydroxypropylcellulose) (HPC)) was 106 % of control. For the same compound, the T/C (dose: 35.0 mg/kg/injection, schedule: Q01DX009 (ip), vehicle: saline) was 121 % of control, the T/C (dose: 50.0 mg/kg/injection, schedule: Q01DX009 (ip), vehicle: Klucel (hydroxypropylcellulose) (HPC)) was 110 % of control and the T/C (dose: 50.0 mg/kg/injection, schedule: Q01DX009 (ip), vehicle: saline) was 195 % of control. For the same compound, the T/C (dose: 55.0 mg/kg/injection, schedule: Q01DX009 (ip), vehicle: saline) was 101 % of control and 109 % of control, the T/C (dose: 84.0 mg/kg/injection, schedule: Q01DX009 (ip), vehicle: saline) was 107 % of control and 115 % of control and the T/C [4] was 123 % of control. For the same compound, the T/C (dose: 100.0 mg/kg/injection, schedule: Q01DX009 (ip), vehicle: saline) was 101 % of control, the T/C [3] was 119 % of control and the T/C (dose: 125.0 mg/kg/injection, schedule: Q01DX009 (ip), vehicle: saline) was 114 % of control and 119 % of control.

`CCOC(=O)C(C)Oc1cccc(O)c1[N+](=O)[O-]` (stereo unspecified) was tested, and the T/C (dose: 100.0 mg/kg/injection, schedule: Q01DX001 (ip), vehicle: saline with Tween-80) was 95 % of control, the T/C (dose: 200.0 mg/kg/injection, schedule: Q01DX001 (ip), vehicle: saline with Tween-80) was 97 % of control and the T/C (dose: 400.0 mg/kg/injection, schedule: Q01DX001 (ip), vehicle: saline with Tween-80) was 90 % of control.

With `Cc1ccc(OC(C)C(=O)O)c(C)c1` (stereo unspecified) the T/C (dose: 100.0 mg/kg/injection, schedule: Q04DX002 (ip), vehicle: Klucel (hydroxypropylcellulose) (HPC)) was 104 % of control, the T/C (dose: 200.0 mg/kg/injection, schedule: Q04DX002 (ip), vehicle: Klucel (hydroxypropylcellulose) (HPC)) was 98 % of control and the T/C (dose: 400.0 mg/kg/injection, schedule: Q04DX002 (ip), vehicle: Klucel (hydroxypropylcellulose) (HPC)) was 95 % of control.

With `CC(=O)c1cc(C)c(C)c(C)c1` the T/C [5] was 96 % of control, the T/C [6] was 96 % of control and the T/C [7] was 91 % of control.

`CC(C#N)CC12CCCCC1CC/C(=C\c1ccccc1)C2=O` (stereo unspecified) was tested, and the T/C (dose: 100.0 mg/kg/injection, schedule: Q04DX003 (ip), vehicle: Klucel (hydroxypropylcellulose) (HPC)) was 102 % of control, the T/C (dose: 200.0 mg/kg/injection, schedule: Q04DX003 (ip), vehicle: Klucel (hydroxypropylcellulose) (HPC)) was 96 % of control and the T/C (dose: 400.0 mg/kg/injection, schedule: Q04DX003 (ip), vehicle: Klucel (hydroxypropylcellulose) (HPC)) was 96 % of control.

With `C/C=C/CNc1ccc(C)cc1` the T/C (dose: 25.0 mg/kg/injection, schedule: Q01DX009 (ip), vehicle: saline with Tween-80) was 102 % of control, the T/C (dose: 25.0 mg/kg/injection, schedule: Q04DX003 (ip), vehicle: saline with Tween-80) was 97 % of control and the T/C (dose: 50.0 mg/kg/injection, schedule: Q01DX009 (ip), vehicle: saline with Tween-80) was 97 % of control. The T/C (dose: 50.0 mg/kg/injection, schedule: Q04DX003 (ip), vehicle: saline with Tween-80) was 90 % of control and the T/C [1] was 101 % of control.

In the case of `Cc1ccc(C)c(-n2c(C)nc3ccccc3c2=O)c1`, the T/C [4] was 86 % of control, the T/C [8] was 100 % of control and the T/C [9] was 91 % of control.

`N=C1C(=O)C(=N)c2ccccc2-c2ccccc21` was tested, and the T/C [4] was 94 % of control, the T/C [8] was 97 % of control and the T/C [9] was 95 % of control.

In the case of `OC1(C#CC2(O)CCCC2)CCCC1`, the T/C (dose: 50.0 mg/kg/injection, schedule: Q01DX001 (ip), vehicle: carboxymethylcellulose (CMC)) was 98 % of control, the T/C (dose: 100.0 mg/kg/injection, schedule: Q01DX001 (ip), vehicle: carboxymethylcellulose (CMC)) was 95 % of control and the T/C (dose: 200.0 mg/kg/injection, schedule: Q01DX001 (ip), vehicle: carboxymethylcellulose (CMC)) was 87 % of control. For the same compound, the T/C (dose: 400.0 mg/kg/injection, schedule: Q01DX001 (ip), vehicle: carboxymethylcellulose (CMC)) was 93 % of control.

In the case of `CN(C)CCCN1CCC2(CCC(CO)CC2)CC1`, the T/C [5] was 94 % of control, the T/C [6] was 94 % of control and the T/C [7] was 102 % of control.

With `O=C(O)C1OC(Oc2ccc3oc4ccccc4c(=O)c3c2)C(O)C(O)C1O` (stereo unspecified) the T/C [4] was 91 % of control, the T/C [8] was 97 % of control and the T/C [9] was 111 % of control.

`Cc1cc(C)c(Br)cc1N` was tested, and the T/C (dose: 100.0 mg/kg/injection, schedule: Q01DX001 (ip), vehicle: Klucel (hydroxypropylcellulose) (HPC)) was 90 % of control, the T/C (dose: 200.0 mg/kg/injection, schedule: Q01DX001 (ip), vehicle: Klucel (hydroxypropylcellulose) (HPC)) was 95 % of control and the T/C (dose: 400.0 mg/kg/injection, schedule: Q01DX001 (ip), vehicle: Klucel (hydroxypropylcellulose) (HPC)) was 102 % of control.
